Assay results from patent US20190152992A1, “BENZODIOXANE DERIVATIVES AND THEIR PHARMACEUTICAL USE” (Orion Corporation, priority 2016, published 2019).
Counter-ions that a name gives are not always drawn.

Key:
[1] = biological target: T1, human alpha2A receptors (Homo sapiens, UniProt P08913); test: cell-based
T1 sequence (P08913 1-465): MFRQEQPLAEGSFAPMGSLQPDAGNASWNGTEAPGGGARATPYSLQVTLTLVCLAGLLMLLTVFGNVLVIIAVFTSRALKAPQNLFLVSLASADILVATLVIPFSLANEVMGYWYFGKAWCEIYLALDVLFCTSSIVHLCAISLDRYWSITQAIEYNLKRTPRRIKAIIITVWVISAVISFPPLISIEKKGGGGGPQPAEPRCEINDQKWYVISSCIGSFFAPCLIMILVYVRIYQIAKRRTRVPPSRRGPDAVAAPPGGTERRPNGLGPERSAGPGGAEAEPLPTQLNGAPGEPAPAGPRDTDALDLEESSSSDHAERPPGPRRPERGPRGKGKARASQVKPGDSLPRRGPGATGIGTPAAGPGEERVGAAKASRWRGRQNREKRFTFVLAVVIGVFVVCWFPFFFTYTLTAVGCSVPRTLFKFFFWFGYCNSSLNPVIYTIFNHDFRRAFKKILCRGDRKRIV

[2] = biological target: T2, human alpha2C receptors (Homo sapiens, UniProt P18825); test: Determination of alpha2C antagonistic activity in vitro (FLIPR calcium assay); conditions: for Kb: Alpha 2C Adrenaline Kb, Kb calculated from IC50 with the Cheng-Prusoff equation, adrenaline as agonist, CHO cells, human alpha2C
T2 sequence (P18825 1-462): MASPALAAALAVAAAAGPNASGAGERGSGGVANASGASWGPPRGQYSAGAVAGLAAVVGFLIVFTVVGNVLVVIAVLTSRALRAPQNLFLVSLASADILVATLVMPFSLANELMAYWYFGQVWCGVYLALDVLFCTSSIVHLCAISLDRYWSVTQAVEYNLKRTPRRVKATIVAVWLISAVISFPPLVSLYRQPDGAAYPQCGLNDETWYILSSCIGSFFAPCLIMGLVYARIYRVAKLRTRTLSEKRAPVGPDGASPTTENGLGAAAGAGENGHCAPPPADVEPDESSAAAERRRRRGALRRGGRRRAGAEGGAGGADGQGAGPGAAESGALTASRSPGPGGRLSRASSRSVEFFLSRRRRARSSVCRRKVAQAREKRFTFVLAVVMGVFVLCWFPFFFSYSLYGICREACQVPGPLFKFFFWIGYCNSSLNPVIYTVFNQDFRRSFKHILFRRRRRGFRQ
Procedure: Experiment 1: Determination of alpha2A and alpha2C Antagonistic Activity In Vitro
The growth medium was removed and the cells were incubated with the test compounds and the FLIPR Calcium 6 Assay reagent (Molecular Devices, CA, USA) for 2 h at 37° C. in dark. The test compounds (concentrations in cells 100 pM-10 μM) were dissolved in Probenecid-Ringer consisting of 150 mM NaCl, 3 mM KCl, 1.2 mM MgCl2, 1 mM CaCl2, 5 mM glucose, 20 mM HEPES and 2.5 mM probenecid (pH 7.4 adjusted with 1.0 M NaOH). […] All experiments were performed at 37° C. For agonism measurements the test compounds dissolved in Probenecid-Ringer were applied by FLIPR Tetra at 15 s time point. In order to determine antagonism, the cells were stimulated either with 100 nM adrenaline or noradrenaline and the test compounds were added to the cells 2 h before the experiment with the FLIPR Calcium 6 Assay reagent. […] Typically, there were four replicates at each concentration and six different dose levels. […] The minimum fluorescence value subtracted from the maximum value for each well was used in the calculations. ScreenWorks version 4.0 software was used for analyzing the results. Fitting of the antagonist dose-response results was performed with the free Hill equation and the IC50 values were fitted with IDBS XE software using model 200: y=(A+(B/(1+((x/C)̂D)))), where A is the curve maximum, B the curve minimum and C equals the EC50 value. D is slope factor (Hill). Kb was calculated with the Cheng-Prusoff equation Kb=A/((B/C)+1), where A is the IC50 of antagonist, B the concentration of agonist and C the EC50 of the agonist.

Row | Structure (SMILES) | IC50 [1] [nM] | Kb [1] [nM] | IC50 [2] [nM] | Kb [2] [nM]
1 | O=C1Cc2ccccc2N1[C@H]1CCCN(C[C@H]2COc3ccccc3O2)C1 [example 26, 1-((S)-1-(((S)-2,3-Dihydrobenzo[b][1,4]dioxin-2-yl)methyl)piperidin-3-yl)indolin-2-one] | > 10000 | > 449 | 27.9 | 2.81
2 | Cc1nc2c(F)cc(F)cc2n1[C@H]1CCCN(C[C@H]2COc3ccccc3O2)C1 [example 27, 1-((S)-1-(((S)-2,3-Dihydrobenzo[b][1,4]dioxin-2-yl)methyl)piperidin-3-yl)-4,6-difluoro-2-methyl-1H-benzo[d]imidazole] | > 10000 | > 449 | 20.8 | 2.09
3 | Cc1nc2cc(F)c(F)cc2n1[C@H]1CCCN(C[C@H]2COc3ccccc3O2)C1 [example 28, 1-((S)-1-(((S)-2,3-Dihydrobenzo[b][1,4]dioxin-2-yl)methyl)piperidin-3-yl)-5,6-difluoro-2-methyl-1H-benzo[d]imidazole] | > 10000 | > 449 | 5.43 | 0.547
4 | CC1CCC(=O)N1[C@H]1CCCN(C[C@H]2COc3ccccc3O2)C1 (stereo partly drawn) [example 30, 1-((S)-1-(((S)-2,3-Dihydrobenzo[b][1,4]dioxin-2-yl)methyl)piperidin-3-yl)-5-methylpyrrolidin-2-one] | > 1000 | > 45 | 1.11 | 0.11
5 | O=C1C(c2ccccc2)CCN1[C@H]1CCCN(C[C@H]2COc3ccccc3O2)C1 (stereo partly drawn) [example 31, 1-((S)-1-(((S)-2,3-Dihydrobenzo[b][1,4]dioxin-2-yl)methyl)piperidin-3-yl)-3-phenylpyrrolidin-2-one] | > 10000 | > 449 | > 10000 | > 1010
6 | O=C1CC(c2ccccc2)CN1[C@H]1CCCN(C[C@H]2COc3ccccc3O2)C1 (stereo partly drawn) [example 32, 1-((S)-1-(((S)-2,3-Dihydrobenzo[b][1,4]dioxin-2-yl)methyl)piperidin-3-yl)-4-phenylpyrrolidin-2-one] | 5210 | 234 | < 0.01 | < 0.001
7 | O=C1C2C3C=CC(C3)C2C(=O)N1[C@H]1CCCN(C[C@H]2COc3ccccc3O2)C1 (stereo partly drawn) [example 34, 2-((S)-1-(((S)-2,3-Dihydrobenzo[b][1,4]dioxin-2-yl)methyl)piperidin-3-yl)-3a,4,7,7a-tetrahydro-1H-4,7-methanoisoindole-1,3(2H)-dione] | 6860 | 308 | 0.02 | 0.002
8 | CC1(c2ccccc2)CC(=O)N([C@H]2CCCN(C[C@H]3COc4ccccc4O3)C2)C1=O (stereo partly drawn) [example 35, 1-((S)-1-(((S)-2,3-Dihydrobenzo[b][1,4]dioxin-2-yl)methyl)piperidin-3-yl)-3-methyl-3-phenylpyrrolidine-2,5-dione] | 193 | 9 | < 0.01 | –
9 | O=C1C2CC2(c2ccccc2)C(=O)N1[C@H]1CCCN(C[C@H]2COc3ccccc3O2)C1 (stereo partly drawn) [example 37, 3-((S)-1-(((S)-2,3-Dihydrobenzo[b][1,4]dioxin-2-yl)methyl)piperidin-3-yl)-1-phenyl-3-azabicyclo[3.1.0]hexane-2,4-dione] | > 10000 | > 449 | < 0.01 | < 0.001
10 | O=C1C(=O)N([C@H]2CCCN(C[C@H]3COc4ccccc4O3)C2)CC1c1ccccc1 (stereo partly drawn) [example 38, 1-((S)-1-(((S)-2,3-Dihydrobenzo[b][1,4]dioxin-2-yl)methyl)piperidin-3-yl)-4-phenylpyrrolidine-2,3-dione] | > 10000 | > 449 | 1.54 | 0.153
11 | O=C1C=C(c2ccccc2)CN1[C@H]1CCCN(C[C@H]2COc3ccccc3O2)C1 [example 39, 1-((S)-1-(((S)-2,3-Dihydrobenzo[b][1,4]dioxin-2-yl)methyl)piperidin-3-yl)-4-phenyl-1H-pyrrol-2(5H)-one] | > 10000 | > 449 | 1.79 | 0.181
12 | CC1=CC(=O)N([C@H]2CCCN(C[C@H]3COc4ccccc4O3)C2)C1 [example 40, 1-((S)-1-(((S)-2,3-Dihydrobenzo[b][1,4]dioxin-2-yl)methyl)piperidin-3-yl)-4-methyl-1H-pyrrol-2(5H)-one] | > 10000 | > 449 | 2.32 | 0.232
13 | O=C1C=C(c2ccc(F)cc2)CN1[C@H]1CCCN(C[C@H]2COc3ccccc3O2)C1 [example 41, 1-((S)-1-(((S)-2,3-Dihydrobenzo[b][1,4]dioxin-2-yl)methyl)piperidin-3-yl)-4-(4-fluorophenyl)-1H-pyrrol-2(5H)-one] | > 10000 | > 449 | 11.8 | 1.19
14 | CC1=C(c2ccccc2)C(=O)N([C@H]2CCCN(C[C@H]3COc4ccccc4O3)C2)C1 [example 42, 1-((S)-1-(((S)-2,3-Dihydrobenzo[b][1,4]dioxin-2-yl)methyl)piperidin-3-yl)-4-methyl-3-phenyl-1H-pyrrol-2(5H)-one] | > 10000 | > 449 | 331 | 33.3
15 | COc1ccccc1C1=CC(=O)N([C@H]2CCCN(C[C@H]3COc4ccccc4O3)C2)C1 [example 43, 1-((S)-1-(((S)-2,3-Dihydrobenzo[b][1,4]dioxin-2-yl)methyl)piperidin-3-yl)-4-(2-methoxyphenyl)-1H-pyrrol-2(5H)-one formate] | > 10000 | > 449 | < 0.01 | < 0.001
16 | O=C1N(c2ccccc2)CCN1[C@H]1CCCN(C[C@H]2COc3ccccc3O2)C1 [example 48, 1-((S)-1-(((S)-2,3-Dihydrobenzo[b][1,4]dioxin-2-yl)methyl)piperidin-3-yl)-3-phenylimidazolidin-2-one] | > 10000 | > 449 | 29.9 | 3.01
17 | O=C1N(Cc2ccccc2)CCN1[C@H]1CCCN(C[C@H]2COc3ccccc3O2)C1 [example 50, 1-Benzyl-3-((S)-1-(((S)-2,3-dihydrobenzo[b][1,4]dioxin-2-yl)methyl)piperidin-3-yl)imidazolidin-2-one] | 1020 | 46 | < 0.1 | < 0.01
18 | CN1C(=O)N([C@H]2CCCN(C[C@H]3COc4ccccc4O3)C2)CC1(C)C [example 51, 1-((S)-1-(((S)-2,3-Dihydrobenzo[b][1,4]dioxin-2-yl)methyl)piperidin-3-yl)-3,4,4-trimethylimidazolidin-2-one] | > 10000 | > 449 | 0.11 | 0.01
19 | CN1CCCN([C@H]2CCCN(C[C@H]3COc4ccccc4O3)C2)C1=O [example 54, 1-((S)-1-(((S)-2,3-Dihydrobenzo[b][1,4]dioxin-2-yl)methyl)piperidin-3-yl)-3-methyltetrahydropyrimidin-2(1H)-one] | > 10000 | > 449 | 4.95 | 0.5
20 | COc1cccc2c1CN([C@H]1CCCN(C[C@H]3COc4ccccc4O3)C1)C2=O [example 55, 2-((S)-1-(((S)-2,3-Dihydrobenzo[b][1,4]dioxin-2-yl)methyl)piperidin-3-yl)-4-methoxyisoindolin-1-one] | > 10000 | > 449 | 0.029 | 0.003
21 | O=C1c2ccc(F)c(F)c2CN1[C@H]1CCCN(C[C@H]2COc3ccccc3O2)C1 [example 56, 2-((S)-1-(((S)-2,3-Dihydrobenzo[b][1,4]dioxin-2-yl)methyl)piperidin-3-yl)-4,5-difluoroisoindolin-1-one hydrochloride] | > 10000 | > 449 | 0.519 | 0.052
22 | O=C1c2cccc(F)c2CN1[C@H]1CCCN(C[C@H]2COc3ccccc3O2)C1 [example 57, 2-((S)-1-(((S)-2,3-Dihydrobenzo[b][1,4]dioxin-2-yl)methyl)piperidin-3-yl)-4-fluoroisoindolin-1-one hydrochloride] | > 10000 | > 449 | 1.54 | 0.15
23 | O=C1c2ccc(F)cc2CN1[C@H]1CCCN(C[C@H]2COc3ccccc3O2)C1 [example 58, 2-((S)-1-(((S)-2,3-Dihydrobenzo[b][1,4]dioxin-2-yl)methyl)piperidin-3-yl)-5-fluoroisoindolin-1-one hydrochloride] | > 10000 | > 449 | 0.299 | 0.03
24 | Cc1ccc2c(c1)CN([C@H]1CCCN(C[C@H]3COc4ccccc4O3)C1)C2=O [example 59, 2-((S)-1-(((S)-2,3-Dihydrobenzo[b][1,4]dioxin-2-yl)methyl)piperidin-3-yl)-5-methylisoindolin-1-one formate] | > 10000 | > 449 | < 0.01 | < 0.001
